Data published in article PMC3638638, “Metabonomics Combined with UPLC-MS Chemical Profile for Discovery of Antidepressant Ingredients of a Traditional Chinese Medicines Formula, Chaihu-Shu-Gan-San” (Evidence-based Complementary and Alternative Medicine : eCAM, 2013).
Where a name gives a salt, the structure may show the parent alone. Read-outs that look alike come from different tables or passages of the source.

Experiments:
rat MAO-A = biological target: T1, rat MAO-A (Rattus norvegicus, UniProt P21396); assay: Monoamine oxidase A (MAO-A) activity assay, spectrophotometric enzymatic kit; type: biochemical
T1 sequence (P21396 1-526): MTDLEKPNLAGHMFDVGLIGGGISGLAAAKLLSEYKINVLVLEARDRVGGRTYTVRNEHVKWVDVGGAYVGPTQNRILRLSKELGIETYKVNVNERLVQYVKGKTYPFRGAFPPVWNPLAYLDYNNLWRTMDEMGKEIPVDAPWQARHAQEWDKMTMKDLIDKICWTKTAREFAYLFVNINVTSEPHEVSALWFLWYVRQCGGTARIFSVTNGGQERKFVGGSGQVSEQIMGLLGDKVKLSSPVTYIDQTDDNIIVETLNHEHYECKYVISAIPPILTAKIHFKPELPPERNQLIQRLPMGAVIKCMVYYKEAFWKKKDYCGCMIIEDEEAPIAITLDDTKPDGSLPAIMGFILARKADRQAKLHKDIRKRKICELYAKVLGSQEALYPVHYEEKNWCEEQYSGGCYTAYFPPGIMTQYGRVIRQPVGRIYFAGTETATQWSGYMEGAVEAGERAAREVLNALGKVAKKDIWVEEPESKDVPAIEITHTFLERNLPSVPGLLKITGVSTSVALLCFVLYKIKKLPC
Description: MAO was purified from the rat liver according to the Gómez method after minor modification. The liver tissue was rapidly removed into ice cold homogenized (1 : 10, w/v) in 50 mM KH2PO4 buffer, pH 7.2, containing […]. Following centrifugation at 1000 g for 10 min, the supernatant was centrifuged at 10,000 g for 30 min to obtain crude mitochondrial pellet.
The MAO-A activity was measured by spectrophotometrically (Mapada, UV-3100, China) using enzymatic kits according to the instructions (Nanjing Jiancheng Institute of Biotechnology). IC50 values were used to estimate the inhibition calculated in relation to a sample of the enzyme treated under the same conditions without inhibitor, versus inhibitor concentration.

CUMS treated rats = assay: Ethological study of antidepressant effect on CUMS rat model (body weight, open-field test, sucrose consumption); type: in vivo; settings: n=8
Description: 40 healthy, adult, male Wistar rats, weighing 200 ± 20 g each, were purchased from the Institute of Laboratory Animal Science, CAMS and PUMC (Beijing, China). The rats were housed individually in cages for one week to adapt to the environment under controlled conditions of 12 h light–12 h dark cycles (lights on from 6:00 a.m. to 6:00 p.m.), […], and temperature (20 ± 3°C) with commercial diet and water available ad libitum. All experimental procedures were approved by the Ethics Committee of the Institute of Medicinal Plant Development, CAMS & PUMC.
All rats except control group were subjected to a series of variable stimuli as previously described after minor modification.
The antidepressant effects of CSGS and QZ extracts were evaluated on a CUMS rat model, a well-validated animal model of depression (see supplementary material Table S1 available online at http://dx.doi.org/10.1155/2013/487158).

[1] = parameters: method as in PMID 3435494, PMID 20515525; settings: must be hydrolyzed by gut microflora enzymes to aglycone naringenin; cited from earlier work
[2] = rat MAO-A as enzyme source (rat liver mitochondrial pellet)
[3] = rat MAO-A as enzyme source (rat liver mitochondrial pellet), read-out: IC50, inhibition against MAO-A activity

Row | Compound | IC50, inhibition against MAO-A activity (rat MAO-A; [2]) | IC50 (rat MAO-A; [3]) [µM] | IC50 (rat MAO-A) [µM] | further results
1 | COc1ccc([C@@H]2CC(=O)c3c(O)cc(O[C@@H]4O[C@H](CO[C@@H]5O[C@@H](C)[C@H](O)[C@@H](O)[C@H]5O)[C@@H](O)[C@H](O)[C@H]4O)cc3O2)cc1O [Hesperidin] | relatively weak | 26.7 |  | 
2 | COc1ccc([C@@H]2CC(=O)c3c(O)cc(O[C@@H]4O[C@H](CO)[C@@H](O)[C@H](O)[C@H]4O[C@@H]4O[C@@H](C)[C@H](O)[C@@H](O)[C@H]4O)cc3O2)cc1O [Neohesperidin] | relatively weak | 93.8 |  | 
3 | CNCCC(Oc1ccc(C(F)(F)F)cc1)c1ccccc1 (stereo not drawn) [Positive control, Fluoxetine hydrochloride] |  |  |  | Body weight, 0W (CUMS treated rats; 0W (baseline), mean): 191.702 g; Sucrose consumption, 4W (CUMS treated rats; 4W of treatment): 17.5 g; Open-field test (OFT), 0W (CUMS treated rats; horizontal movements, 0W (baseline), mean): 81.7; Open-field test (OFT), 4W (CUMS treated rats; horizontal movements, 4W of treatment, mean): 61.4
4 | C[C@@H]1O[C@@H](O[C@H]2[C@H](Oc3cc(O)c4c(c3)O[C@H](c3ccc(O)cc3)CC4=O)O[C@H](CO)[C@@H](O)[C@@H]2O)[C@H](O)[C@H](O)[C@H]1O [Naringin] |  |  | 5.82 | Absorption from the gastrointestinal tract in its original form [1]: poorly absorbed
5 | CNCC(O)c1ccc(O)cc1 (stereo not drawn) [Synephrine] | relatively weak |  | 15.2 | 
